Where a name gives a salt, the structure may show the parent alone.
Legend:
[1] = 4.2-5.5 mg/kg, 7 patients, cited from earlier work
[2] = B6D2F1-mice, absorption from the gastro-intestinal tract; cited from earlier work
[3] = Stability of aqueous solution of bendamustine as a function of pH (hydrolysis); type: physicochemical

Row | Structure (SMILES) | mean oral bioavailability ([1]; 25 mg capsules vs intravenous) | time to maximal plasma levels after oral administration ([1]; 25 mg capsules) | bio-availability [2] | pH above which significant hydrolytic decomposition is observed [3]
1 | Cn1c(CCCC(=O)O)nc2cc(N(CCCl)CCCl)ccc21 [bendamustine hydrochloride] | 57% | ≤ 1 h | about 40% | 
2 | Cn1c(CCCC(=O)O)nc2cc(N(CCCl)CCCl)ccc21 [bendamustine, 4-[5-[bis(2-chloroethyl)amino]-1-methylbenzimidazo-2-yl]butanoic acid] |  |  |  | higher than 5

Source: patent publication US11160793B2, “Solid dosage forms of bendamustine” (Astellas Deutschland GmbH, priority 2008, dated 2021)
